A short description of one data set: clinical. Further details: species or system human. Particulars: in vivo.
For another data set, the system named is advanced solid tumours. The experiment in a line: Tumour response by RECIST 1.1. In kind it is in vivo, human.
Another data set has as its system Hes1. The data set can be described thus: Hes1 expression in peripheral blood. The class given is in vivo, human. Particulars: after 2 weeks of dosing at 1.2 mg QD and 1.5 mg QD.
Data set [1] has as its system human T-ALL xenograft models. Particulars: single agent; nonclinical; cited from earlier work.
Data set [2] deals with Notch receptors (Notch1 to 4). Particulars: all 4 mammalian Notch receptors (Notch1 to 4); nonclinical; cited from earlier work.
The next data set relates to Deltex1. The experiment in a line: Deltex1 expression in peripheral blood. In kind it is in vivo, human. The note with it: 4 mg BIW.
Another data set deals with solid tumour xenografts. The note with it: including 3 breast, 1 NSCLC, 1 pancreatic carcinoma; nonclinical; cited from earlier work.

A value given as a limit tells only on which side of the number the result lay.

Usually half-life stands for the time in which the quantity being followed falls by half. In turn, `Cc1cccc2c1NC(=O)[C@@H](NC(=O)[C@H](CCC(F)(F)F)[C@H](CCC(F)(F)F)C(N)=O)N=C2c1cccc(F)c1` [BMS-986115] gave a half-life in the data set “clinical” (human) of 17.2 to 28 h. Moreover, the “median accumulation ratio (AUCtau ratio of Day 15/Day 1)” value came to 2.64 in the data set “clinical” (human, 0.3 mg); 3.9 in “clinical” (human, 0.6 mg); 3.66 in “clinical” (human, 1.2 mg); 2.33 in the data set “clinical” (human, 1.5 mg); 2.19 in the data set “clinical” (human, 2 mg). Also, the “Accumulation ratio (AUCtau ratio of Day 16/Day 1)” value is on record as 2.47 in “clinical” (human, 2 mg); 3.01 in “clinical” (human, 4 mg); 2.77 in “clinical” (human, 8 mg). Also, the “Exposure, dose relation” value in the data set “clinical” is given as “dose related increase”. Also, the “Subjects with progressive disease as best tumour response” value in the data set with advanced solid tumours (36 treated subjects) is reported as 58%. Moreover, the “Subjects with stable disease (SD) as best tumour response” value in the data set with advanced solid tumours (36 treated subjects) amounted to 31%. Moreover, in the data set with advanced solid tumours (36 treated subjects, both arms), the “Subjects with SD for more than 6 months” value is recorded as 5 subjects. For the same compound, the “Patients with stable disease for more than 6 months” value in the data set with advanced solid tumours (Arm A) was “Three”; with advanced solid tumours (Arm B), 2 patients. For the same compound, the “Patients with prolonged SD of >6 months with disease shrinkage” value with advanced solid tumours (dose levels that are pharmacodynamically active) came out at 3 patients. Further, the maximum tumor shrinkage worked out at 23.9% in the data set on advanced solid tumours (patient with clear cell renal cell carcinoma, 1.2 mg QD, after ~5.5 months of treatment) and 13.8% with advanced solid tumours (patient with retroperitoneal liposarcoma, 2 mg QD, after ~7.5 months of treatment). Further, the maximum disease shrinkage in the data set with advanced solid tumours (patient with fibromatosis, 1.5 mg QD, after ~9 months of treatment) came to 16.5%. For the same compound, the “Peak inhibition of geometric mean relative expression of Hes1” value in the data set on Hes1 is greater than 80%. In addition, in data set [1], the “Efficacy in human T-ALL xenograft models” value was “effective as a single agent”. The “median inhibitory concentrations (IC50s)” value in data set [2] is given as “low nanomolar”. In the data set with Deltex1, the “Inhibition of geometric mean relative expression of Deltex1” value is greater than 50%. Also, the “Solid tumour xenografts with anti-tumour activity” value in the data set on solid tumour xenografts is on record as 5 out of 7.

Values taken from publication PMC7523345 (Investigational new drugs, 2018).
